Measurements published in the supplement of paper PMC11061612.

Key:
[1] = test system: NCI-H2228 (Lung Adenocarcinoma); assay: combination Emax (second highest fraction inhibited in the dose matrix, 72 h); higher = more inhibition; extreme values may be limits of the assay
Method in brief: (§1)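 Cell lines in DMEM/F12 or RPMI with 10% FBS were plated in 1536-well plates, held 24 hours at 37°C, 5% CO2, then given two-drug dose matrices for 72 hours (DMSO typically 0.2%). Viability was read by CellTiter-Glo 2.0 luminescence and scaled as inhibition from 0 (vehicle wells) to 1 (blank wells). Combination Emax is the second-highest inhibition in the matrix; Bliss excess is observed combination effect minus expected EA + EB − EA·EB, EA and EB being single-agent effects.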

COLO-792 (Melanoma) = assay: as above
Method in brief: as §1

[2] = test system: G-402 (Other Solid Carcinomas); assay: as above
Method in brief: as §1

NB13 (Neuroblastoma) = assay: as above
Method in brief: as §1

AU565 (Breast Carcinoma) = assay: as above
Method in brief: as §1

RH-41 (Rhabdomyosarcoma) = assay: as above
Method in brief: as §1

A204 (Rhabdomyosarcoma) = assay: as above
Method in brief: as §1

[3] = test system: CA46 (Burkitt's Lymphoma); assay: as above
Method in brief: as §1

[4] = test system: OACp4C (Esophageal Adenocarcinoma); assay: as above
Method in brief: as §1

[5] = test system: SW620 (Colorectal Carcinoma); assay: as above
Method in brief: as §1

[6] = test system: NCI-H1651 (Lung Adenocarcinoma); assay: as above
Method in brief: as §1

[7] = test system: A253 (Head and Neck Carcinoma); assay: as above
Method in brief: as §1

IM-9 (Non-Cancerous) = assay: as above
Method in brief: as §1

[8] = test system: JHH-2 (Hepatocellular Carcinoma); assay: as above
Method in brief: as §1

EW-16 (Ewing's Sarcoma) = assay: as above
Method in brief: as §1

[9] = test system: EPLC-272H (Other Solid Carcinomas); assay: Bliss excess, mean over the matrix (fraction); higher = more synergy
Method in brief: as §1

[10] = test system: HT55 (Colorectal Carcinoma); assay: as above
Method in brief: as §1

[11] = test system: NCI-H716 (Colorectal Carcinoma); assay: as above
Method in brief: as §1

PEO1 (Ovarian Carcinoma) = assay: as above
Method in brief: as §1

[12] = test system: A2780 (Ovarian Carcinoma); assay: as above
Method in brief: as §1
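Wherever Bliss excess, mean over the matrix is given: after 72 h of two-drug dosing.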

Compound	combination Emax [1]	combination Emax (COLO-792 (Melanoma))	combination Emax [2]	combination Emax (NB13 (Neuroblastoma))	combination Emax (AU565 (Breast Carcinoma))	combination Emax (RH-41 (Rhabdomyosarcoma))	combination Emax (A204 (Rhabdomyosarcoma))	combination Emax [3]	combination Emax [4]	combination Emax [5]	combination Emax [6]	combination Emax [7]	combination Emax (IM-9 (Non-Cancerous))	combination Emax [8]	combination Emax (EW-16 (Ewing's Sarcoma))	Bliss excess [9]	Bliss excess [10]	Bliss excess [11]	Bliss excess (PEO1 (Ovarian Carcinoma))	Bliss excess [12]
COc1cccc(OCCCN)c1-c1cc(Nc2cnc(C#N)cn2)n[nH]1 [Prexasertib] + CCc1c2c(nc3ccc(O)cc13)-c1cc3c(c(=O)n1C2)COC(=O)[C@]3(O)CC [SN-38] (first compound max 1 µM, 7x7, partner max 0.3 µM)	0.821	0.559	0.868	0.962	0.949	1	0.678	0.837	0.918	0.975	0.879	0.966	1	0.95	0.984	-0.0229	0.0552	0.0825	-0.0015	-0.0528
CN(CCO)CC[C@H](CSc1ccccc1)Nc1ccc(S(=O)(=O)NC(=O)c2ccc(N3CCC([C@@H](O)c4ccccc4-c4ccc(Cl)cc4)CC3)cc2)cc1S(=O)(=O)C(F)(F)F [AZD4320] + CN(C)CCCOc1ccc(-c2ccc3ncc4c(c3c2)n(C2CCOCC2)c(=O)n4C)cn1 [AZD0156] (first compound max 1 µM, 7x7, partner max 1 µM)	0.278	0.856	0.401	1	0.253	0.85	0.223	0.349	0.851	0.366	0.0674	0.173	0.459	0.194	0.406	0.0102	-0.0158	-0.0214	-0.0753	-0.0519
CS(=O)(=O)CCNCc1ccc(-c2ccc3ncnc(Nc4ccc(OCc5cccc(F)c5)c(Cl)c4)c3c2)o1 [Lapatinib] + C[C@@H](Oc1cc(-c2cnn(C3CCNCC3)c2)cnc1N)c1c(Cl)ccc(F)c1Cl [Crizotinib] (first compound max 10 µM, 7x7, partner max 10 µM)	0.769	0.981	0.879	0.949	0.959	0.991	0.498	0.861	1	0.921	0.566	0.907	0.991	0.882	0.969	0.0191	-0.0412	-0.0217	-0.0422	-0.0277
CC1(C)CCC(CN2CCN(c3ccc(C(=O)NS(=O)(=O)c4ccc(NCC5CCOCC5)c([N+](=O)[O-])c4)c(Oc4cnc5[nH]ccc5c4)c3)CC2)=C(c2ccc(Cl)cc2)C1 [Venetoclax] + C[C@@H](Nc1cc(F)cc(F)c1)c1cc(C(=O)N(C)C)cc2c(=O)cc(N3CCOCC3)oc12 [AZD8186] (first compound max 1 µM, 7x7, partner max 3 µM)	0.293	0.328	0.29	0.253	0.225	0.491	0.327	0.533	0.31	0.0907	0.128	0.103	0.573	0.806	0.17	0.0111	-0.0193	-0.047	-0.0427	-0.0138
Cc1c2c(nn1C)CSCc1cc(n(C)n1)CSc1cc(c3ccccc3c1)OCCCc1c(C(=O)O)n(C)c3c-2c(Cl)ccc13 [AZD5991] + Cn1cnc2c(F)c(Nc3ccc(Br)cc3Cl)c(C(=O)NOCCO)cc21 [Selumetinib] (first compound max 1 µM, 7x7, partner max 3 µM)	0.249	1	0.955	0.263	1	1	0.459	0.0912	0.835	0.643	0.218	0.944	0.848	0.342	0.258	0.0197	0.043	0.0278	0.0027	-0.0361
COc1nnc2ccc(N3CCC(c4ccc(OCCN5CCN(C)C(=O)[C@H]5C)cc4)CC3)nn12 [AZD5153] + Cc1c2c(nn1C)CSCc1cc(n(C)n1)CSc1cc(c3ccccc3c1)OCCCc1c(C(=O)O)n(C)c3c-2c(Cl)ccc13 [AZD5991] (first compound max 1 µM, 7x7, partner max 1 µM)	0.372	1	0.987	0.907	1	1	0.73	0.64	0.789	0.512	0.515	0.816	0.886	0.343	0.486	-0.026	-0.0445	0.0076	-0.0209	-0.0324
COc1cccc(OCCCN)c1-c1cc(Nc2cnc(C#N)cn2)n[nH]1 [Prexasertib] + Cc1cc2ncnn2cc1Nc1ncc2c(n1)n(C1CCOCC1)c(=O)n2C [AZD7648] (first compound max 1 µM, 7x7, partner max 10 µM)	0.682	0.317	0.58	0.919	0.745	0.964	0.528	0.653	0.649	0.698	0.787	0.782	1	0.891	0.558	-0.0481	-0.0102	0.0577	-0.0117	0.0097
CCN(CCO)CCCOc1ccc2c(Nc3cc(CC(=O)Nc4cccc(F)c4)[nH]n3)ncnc2c1 [AZD2811] + C[C@@H]1COCCN1C2=NC(=NC(=C2)C3(CC3)[S@](=N)(=O)C)C4=C5C=CNC5=NC=C4 [AZD6738] (first compound max 1 µM, 7x7, partner max 10 µM)	0.517	0.418	0.606	0.941	0.362	0.706	0.387	0.482	0.733	0.417	0.56	0.756	0.981	0.62	0.758	0.0137	-0.0227	-0.0765	-0.0718	-0.0619
COc1cccc(OCCCN)c1-c1cc(Nc2cnc(C#N)cn2)n[nH]1 [Prexasertib] + C[C@@H]1COCCN1C2=NC(=NC(=C2)C3(CC3)[S@](=N)(=O)C)C4=C5C=CNC5=NC=C4 [AZD6738] (first compound max 1 µM, 7x7, partner max 10 µM)	0.643	0.351	0.605	0.943	0.633	0.97	0.534	0.599	0.737	0.744	0.722	0.846	1	0.854	0.736	-0.0656	0.0367	-0.0432	-0.0083	-0.0173
CN(C)CCCOc1ccc(-c2ccc3ncc4c(c3c2)n(C2CCOCC2)c(=O)n4C)cn1 [AZD0156] + C=CCn1c(=O)c2cnc(Nc3ccc(N4CCN(C)CC4)cc3)nc2n1-c1cccc(C(C)(C)O)n1 [AZD1775] (first compound max 1 µM, partner max 1 µM)	0.5	0.538	0.363	0.906	0.454	0.948	0.27	0.636	0.83	0.495	0.62	0.327	0.986	0.53	0.307	-0.0105	-0.0671	0.022	-0.0442	-0.0284
NC1(C(=O)N[C@@H](CCO)c2ccc(Cl)cc2)CCN(c2ncnc3[nH]ccc23)CC1 [Capivasertib] + CC(C)n1c(=O)n(C)c2cnc3cc(F)c(-c4ccc(OCCCN5CCCCC5)nc4)cc3c21 [AZD1390] (first compound max 10 µM, 7x7, partner max 0.3 µM)	0.46	0.444	0.398	0.254	0.535	0.921	0.382	0.23	0.818	0.227	0.149	0.559	0.577	0.539	0.296	-0.13	-0.0432	-0.0701	-0.0601	-0.0885
CCN(CCO)CCCOc1ccc2c(Nc3cc(CC(=O)Nc4cccc(F)c4)[nH]n3)ncnc2c1 [AZD2811] + O=C(c1cc(Cc2n[nH]c(=O)c3ccccc23)ccc1F)N1CCN(C(=O)C2CC2)CC1 [Olaparib] (first compound max 1 µM, 7x7, partner max 10 µM)	0.268	0.374	0.605	0.626	0.214	0.245	0.387	0.248	0.408	0.281	0.248	0.25	0.981	0.202	0.626	0.0042	0.0248	0.0047	-0.0019	0.0453
CC1(C)CCC(CN2CCN(c3ccc(C(=O)NS(=O)(=O)c4ccc(NCC5CCOCC5)c([N+](=O)[O-])c4)c(Oc4cnc5[nH]ccc5c4)c3)CC2)=C(c2ccc(Cl)cc2)C1 [Venetoclax] + C[C@@H]1COCCN1C2=NC(=NC(=C2)C3(CC3)[S@](=N)(=O)C)C4=C5C=CNC5=NC=C4 [AZD6738] (first compound max 1 µM, 7x7, partner max 10 µM)	0.476	0.316	0.705	0.942	0.382	0.855	0.479	0.506	0.711	0.47	0.652	0.804	0.995	0.697	0.792	-0.0233	-0.0511	-0.0015	-0.0038	-0.0548
